Measured values reported in patent US7544821B2, “α-Ketol unsaturated fatty acid derivative and plant growth regulating agent using same” (Shiseido Company, Ltd., priority 2004, dated 2009).
Like-named read-outs stand apart in the source and are kept apart here.

Columns and labels:
[1] = test system: morning glory (variety: murasaki); test: Activity in increasing flower budding of morning glory (spray, dark treatment, flower buds counted on the 14th day); assay type: in vivo
Description: Seeds of morning glory (variety: murasaki) (9 g) were subjected to concentrated sulfuric acid treatment for 20 minutes, and then allowed to stand under water flow overnight.
Subsequently, the seeds were placed on wet sea sand such that the emerging sites of the roots were directed upward for 24 hours, to thereby produce roots. The seeds having roots were planted in sea sand at a position 1 cm below the surface of the sand, and then cultured under continuous light irradiation (for about five days).
The entire plant bodies of the morning glory having leaves produced through this culture were transferred into a culture solution KNO3(250 mg), NH4NO3 (250 mg), KH2PO4 (250 mg), MgSO4.7H2O (250 mg), MnSO4.4H2O (1 mg), Fe-citrate n-hydrate (6 mg), H3BO3 (2 mg), CuSO4.5H2O (0.1 mg), ZeSO4.7H2O (0.2 mg), Na2MoO4.2H2O (0.2 mg), Ca(H2PO4)2.2H2O (250 mg) in distilled water (1,000 mL)].
Water or a 0.01, 0.1, 1 or 100 μM specific α-ketol fatty acid (1A) aqueous solution was sprayed to the cultured system in an amount of 0.1 mL/plant, then the plants were treated by darkness (for 13.5 hours).
Thereafter, the morning glory was grown under continuous light irradiation at 25° C. for 14 days, and on the 14th day the number of the flower buds was measured.
The results of eight specimens of morning glory were averaged.

[2] = Evaluation of stability: decomposition over time of the diluted aqueous solution, analyzed by HPLC; assay type: physicochemical; conditions: 16 mM ethanol solution diluted by water 30-fold, extended standing, HPLC (FIG. 3)
Description: The stability of the specific α-ketol fatty acid derivative (1A) was evaluated as follows. A 16 mM ethanol solution of the derivative (1A) was diluted by water 30-fold. This diluted solution was allowed to stand for an extended period at each of the temperatures of 4° C., 25° C. and 50° C. The extent of decomposition over time was analyzed by HPLC (column: CAPCELL PAK C-18 UG120, 4.6×250 mm, solvent: 50% acetonitrile+0.1% trifluoroacetic acid, flow rate: 1 ml/min, wavelength: 210 nm). For comparison, a solution prepared by similarly diluting the specific α-ketol fatty acid derivative (2A) was allowed to stand for an extended period at each of 25° C. and 50° C. The extent of decomposition was similarly investigated.

[3] = test system: morning glory (variety: murasaki); conditions: from Japanese Patent Publication (A) No. 11-29410; cited from earlier work

SMILES	optimum concentration relative to the optimum concentration of (2A) ([1]; 1 μM versus 100 μM)	number of flower buds formed, increase ([1]; 0.01-100 μM aqueous solution sprayed 0.1 mL/plant, darkness 13.5 hours, counted on 14th day, average of eight specimens, water 1.25 buds/plant (FIG. 2)) [%]	optimum concentration for flower bud formation ([1]; morning glory, sprayed aqueous solution, FIG. 2) [µM]	stability at 4° C. compared with 25° C. and 50° C. ([2]; 4° C.)	stability compared with (2A) ([2]; 25° C.)	stability compared with (2A) ([2]; 50° C.)	optimum concentration for flower bud formation [3] [µM]
CCC(O)C(O)C/C=C\CC(=O)C(O)CCCCCCCC(=O)O (stereo not shown) [compound (1A), 9,15,16-trihydroxy-10-oxo-12(Z)-octadecenoic acid]	1/100	≥ 200	1	far superior in stability	superior in stability	superior in stability	–
CC/C=C\C/C=C\CC(=O)C(O)CCCCCCCC(=O)O (stereo not shown) [compound (2A), 9-hydroxy-10-oxo-12(Z),15(Z)-octadecadienoic acid]	–	–	–	–	–	–	100
